Biological target: T1, chimeric human RORγ-Gal4 receptor (Homo sapiens, UniProt P51449)
T1 sequence (P51449 269-508 limits assumed): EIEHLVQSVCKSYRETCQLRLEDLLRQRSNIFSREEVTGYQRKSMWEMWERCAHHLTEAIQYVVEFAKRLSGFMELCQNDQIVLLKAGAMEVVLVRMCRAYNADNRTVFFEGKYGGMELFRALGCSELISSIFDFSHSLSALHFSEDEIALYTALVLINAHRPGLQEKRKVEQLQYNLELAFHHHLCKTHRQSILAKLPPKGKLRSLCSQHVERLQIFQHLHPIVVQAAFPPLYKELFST
Experiment: transient transactivation assay (RORγ-Gal4 luciferase reporter)
Format: cell-based
Details: Cos-7 cells transfected with RORγ-Gal4 and 5Gal4 pGL3 TK Luc reporter; overnight incubation; T0901317 at 10^-5 M as reference; read-out: IC50

Row | SMILES | IC50
1 | Cc1cc(C(F)(F)F)cc2c1nc(Cc1c(Cl)ccc(C(=O)N3C[C@@H]4[C@H](C3)[C@H]4C(=O)O)c1Cl)n2C [Example BL, (1R,5S,6r)-3-(2,4-dichloro-3-((1,4-dimethyl-6-(trifluoromethyl)-1H-benzo[d]imidazol-2-yl)methyl)benzoyl)-3-azabicyclo[3.1.0]hexane-6-carboxylic acid] | 1000 to 10000 nM
2 | Cc1cc(C)c2nc(Cc3c(Cl)ccc(C(=O)N4CCOCC4)c3Cl)n(C)c2c1 [Example BO, (2,4-dichloro-3-((1,4,6-trimethyl-1H-benzo[d]imidazol-2-yl)methyl)phenyl)(morpholino)methanone] | 500 to 1000 nM
3 | Cc1ccc(C(=O)N2CCOCC2)c(C)c1Cc1nc2c(C)cc(Br)cc2n1C [Example BR, (3-((6-bromo-1,4-dimethyl-1H-benzo[d]imidazol-2-yl)methyl)-2,4-dimethylphenyl)(morpholino)methanone] | 100 to 500 nM
4 | Cc1cc(C(F)(F)F)cc2c1nc(C(=O)c1c(Cl)ccc(C(=O)N3CCOCC3)c1Cl)n2C [Example BS, (2,4-dichloro-3-(1,4-dimethyl-6-(trifluoromethyl)-1H-benzo[d]imidazole-2-carbonyl)phenyl)(morpholino)methanone] | 100 to 500 nM
5 | Cc1cc(C(N)=O)cc2c1nc(C(=O)c1c(Cl)ccc(C(=O)N3CCOCC3)c1Cl)n2C [Example BT, 2-(2,6-dichloro-3-(morpholine-4-carbonyl)benzoyl)-1,4-dimethyl-1H-benzo[d]imidazole-6-carboxamide] | 1000 to 10000 nM
6 | COCCC1CCN(Cc2ccc(Cl)c(Cc3nc4c(C)cc(C(F)(F)F)cc4n3C)c2Cl)CC1 [Example BW, 2-[[2,6-dichloro-3-[[4-(2-methoxyethyl)-1-piperidyl]methyl]phenyl]methyl]-1,4-dimethyl-6-(trifluoromethyl)benzimidazole] | 100 to 500 nM
7 | Cc1c(Br)ccc2c1nc(Cc1c(Cl)ccc(C(=O)N3CCOCC3)c1Cl)n2C [Example CB, (3-((5-bromo-1,4-dimethyl-1H-benzo[d]imidazol-2-yl)methyl)-2,4-dichlorophenyl)(morpholino)methanone] | 100 to 500 nM
8 | Cn1c(Cc2c(Cl)ccc(C(=O)N3CCC(CC(=O)O)CC3)c2Cl)cc2c(F)cc(C3CC3)cc21 [Example FM, 2-(1-(2,4-dichloro-3-((6-cyclopropyl-4-fluoro-1-methyl-1H-indol-2-yl)methyl)benzoyl)piperidin-4-yl)acetic acid] | < 100 nM
9 | Cn1c(Cc2c(Cl)ccc(C(=O)N3CCC(C(=O)O)CC3)c2Cl)cc2c(F)cc(C3CC3)cc21 [Example FN, 1-(2,4-dichloro-3-((6-cyclopropyl-4-fluoro-1-methyl-1H-indol-2-yl)methyl)benzoyl)piperidine-4-carboxylic acid] | < 100 nM
10 | Cc1cc(C(=O)N(C)C)cc2c1cc(Cc1c(Cl)ccc(C(=O)N3CCOCC3)c1Cl)n2C [Example FO, 2-[[2,6-dichloro-3-(morpholine-4-carbonyl)phenyl]methyl]-N,N,1,4-tetramethyl-indole-6-carboxamide] | < 100 nM
11 | CNC(=O)c1cc(C)c2cc(Cc3c(Cl)ccc(C(=O)N4CCOCC4)c3Cl)n(C)c2c1 [Example FP, 2-[[2,6-dichloro-3-(morpholine-4-carbonyl)phenyl]methyl]-N,1,4-trimethyl-indole-6-carboxamide] | < 100 nM
12 | Cc1cc(C(F)(F)F)cc2c1c(Cc1c(Cl)ccc(C(=O)N3CCC(C(=O)O)CC3)c1Cl)cn2C [Example FQ, 1-(2,4-dichloro-3-((1,4-dimethyl-6-(trifluoromethyl)-1H-indol-3-yl)methyl)benzoyl)piperidine-4-carboxylic acid] | < 100 nM
13 | Cc1cn(Cc2c(Cl)cnc(C(=O)N3CCC(CC(=O)O)CC3)c2Cl)c2c(C)cc(C(F)(F)F)cc12 [Example FR, 2-(1-(3,5-dichloro-4-((3,7-dimethyl-5-(trifluoromethyl)-1H-indol-1-yl)methyl)picolinoyl)piperidin-4-yl)acetic acid] | < 100 nM
14 | COCCC1CCN(C(=O)c2ccc(Cl)c(Cc3cc4c(C)cc(C(F)(F)F)nc4n3C)c2Cl)CC1 [Example FT, (2,4-dichloro-3-((1,4-dimethyl-6-(trifluoromethyl)-1H-pyrrolo[2,3-b]pyridin-2-yl)methyl)phenyl)(4-(2-methoxyethyl)piperidin-1-yl)methanone] | < 100 nM
15 | Cc1cc(C(F)(F)F)nc2c1cc(C(=O)c1c(Cl)ccc(C(=O)N3CCC(C#N)CC3)c1Cl)n2C [Example FV, 1-(2,4-dichloro-3-(1,4-dimethyl-6-(trifluoromethyl)-1H-pyrrolo[2,3-b]pyridine-2-carbonyl)benzoyl)piperidine-4-carbonitrile] | < 100 nM
16 | Cc1cc(C(F)(F)F)nc2c1cc(C(=O)c1c(Cl)ccc(C(=O)N3CC[C@@H](C(=O)O)[C@@H](C)C3)c1Cl)n2C [Example FX, (3R,4R)-1-(2,4-dichloro-3-(1,4-dimethyl-6-(trifluoromethyl)-1H-pyrrolo[2,3-b]pyridine-2-carbonyl)benzoyl)-3-methylpiperidine-4-carboxylic acid] | 100 to 500 nM

Further lines, results first:

Row | IC50 | SMILES
17 | < 100 nM | Cc1cc(C(F)(F)F)cc2c1nc(Cc1c(Cl)ccc(C(=O)N3CCC(CC(=O)O)CC3)c1Cl)n2C [Example BU, 2-(1-(2,4-dichloro-3-((1,4-dimethyl-6-(trifluoromethyl)-1H-benzo[d]imidazol-2-yl)methyl)benzoyl)piperidin-4-yl)acetic acid]
18 | < 100 nM | CCn1c(Cc2c(Cl)ccc(C(=O)N3CCOCC3)c2Cl)cc2c(C)cc(C(F)(F)F)cc21 [Example D-1]
19 | < 100 nM | CC(=O)n1c(Cc2c(Cl)ccc(C(=O)N3CCOCC3)c2Cl)cc2c(C)cc(C(F)(F)F)cc21 [Example D-2]
20 | < 100 nM | Cc1cc(C(F)(F)F)cc2c1c(Cc1c(Cl)ccc(C(=O)N3C[C@@H]4[C@H](C3)[C@H]4C(=O)O)c1Cl)cn2C [Example F1-1]
21 | < 100 nM | Cc1cc(C(F)(F)F)cc2c1c(Cc1c(Cl)ccc(C(=O)N3CC[C@H](C(=O)O)[C@H](C)C3)c1Cl)cn2C [Example F1-2]
22 | < 100 nM | Cc1cc(C(F)(F)F)cc2c1c(Cc1c(Cl)ccc(C(=O)N3CC[C@@H](C(=O)O)[C@@H](C)C3)c1Cl)cn2C [Example F1-3]
23 | < 100 nM | Cc1cc(C#N)cc2c1cc(Cc1c(Cl)ncc(C(=O)N3CCC4(CCOC4)CC3)c1Cl)n2C [Example FB, 2-((2,4-dichloro-5-(2-oxa-8-azaspiro[4.5]decane-8-carbonyl)pyridin-3-yl)methyl)-1,4-dimethyl-1H-indole-6-carbonitrile]
24 | < 100 nM | Cc1cc(C#N)cc2c1cc(Cc1c(Cl)ncc(C(=O)N3CCC(C4COC4)CC3)c1Cl)n2C [Example FC, 2-((2,4-dichloro-5-(4-(oxetan-3-yl)piperidine-1-carbonyl)pyridin-3-yl)methyl)-1,4-dimethyl-1H-indole-6-carbonitrile]
25 | < 100 nM | COc1cc(C)c2cc(Cc3c(Cl)ccc(C(=O)N4CCC(CC(=O)O)CC4)c3Cl)n(C)c2c1 [Example FD, 2-(1-(2,4-dichloro-3-((6-methoxy-1,4-dimethyl-1H-indol-2-yl)methyl)benzoyl)piperidin-4-yl)acetic acid]
26 | < 100 nM | Cn1c(Cc2c(Cl)ccc(C(=O)N3CCC(CC(=O)O)CC3)c2Cl)cc2c(F)cc(C(F)(F)F)cc21 [Example FE, 2-(1-(2,4-dichloro-3-((4-fluoro-1-methyl-6-(trifluoromethyl)-1H-indol-2-yl)methyl)benzoyl)piperidin-4-yl)acetic acid]
27 | < 100 nM | Cc1cc(OC(F)F)cc2c1cc(Cc1c(Cl)ccc(C(=O)N3CCC(CC(=O)O)CC3)c1Cl)n2C [Example FF, 2-(1-(2,4-dichloro-3-((6-(difluoromethoxy)-1,4-dimethyl-1H-indol-2-yl)methyl)benzoyl)piperidin-4-yl)acetic acid]
28 | < 100 nM | Cc1cc(C(F)(F)F)cc2c1cc(C(=O)c1c(Cl)ncc(C(=O)N3CCC(CC(=O)O)CC3)c1Cl)n2C [Example FG, 2-(1-(4,6-dichloro-5-(1,4-dimethyl-6-(trifluoromethyl)-1H-indole-2-carbonyl)nicotinoyl)piperidin-4-yl)acetic acid]
29 | < 100 nM | Cc1cc(C(F)(F)F)cc2c1cc(Cc1c(Cl)cnc(C(=O)N3CCC(CC(=O)O)CC3)c1Cl)n2C [Example FH, 2-(1-(3,5-dichloro-4-((1,4-dimethyl-6-(trifluoromethyl)-1H-indol-2-yl)methyl)picolinoyl)piperidin-4-yl)acetic acid]
30 | < 100 nM | Cn1c(Cc2c(Cl)ccc(C(=O)N3CCC(CC(=O)O)CC3)c2Cl)cc2ccc(OC(F)(F)F)cc21 [Example FI, 2-(1-(2,4-dichloro-3-((1-methyl-6-(trifluoromethoxy)-1H-indol-2-yl)methyl)benzoyl)piperidin-4-yl)acetic acid]
31 | < 100 nM | Cc1nc(C(F)(F)F)cc2c1cc(Cc1c(Cl)ccc(C(=O)N3CCN(C4COC4)CC3)c1Cl)n2C [Example FJ, (2,4-dichloro-3-((1,4-dimethyl-6-(trifluoromethyl)-1H-pyrrolo[3,2-c]pyridin-2-yl)methyl)phenyl)(4-(oxetan-3-yl)piperazin-1-yl)methanone]
32 | < 100 nM | CC(=O)Nc1cc(C)c2cc(Cc3c(Cl)ccc(C(=O)N4CCOCC4)c3Cl)n(C)c2c1 [Example FK, N-(2-(2,6-dichloro-3-(morpholine-4-carbonyl)benzyl)-1,4-dimethyl-1H-indol-6-yl)acetamide]
33 | < 100 nM | Cn1c(Cc2c(C3CC3)ccc(C(=O)N3CCC(CC(=O)O)CC3)c2Cl)cc2ccc(OC(F)(F)F)cc21 [Example FL, 2-(1-(2-chloro-4-cyclopropyl-3-((1-methyl-6-(trifluoromethoxy)-1H-indol-2-yl)methyl)benzoyl)piperidin-4-yl)acetic acid]
